Values quoted from earlier work, collected in patent US7625898B2, “Posaconazole polymer conjugates and methods of treatment using posaconazole and polymer conjugates thereof” (Enzon Pharmaceuticals, Inc., priority 2007, dated 2009).

Conditions: background statement on unmodified posaconazole

- water solubility: < 2 µg/mL
Compound: CC[C@@H]([C@H](C)O)n1ncn(-c2ccc(N3CCN(c4ccc(OC[C@@H]5CO[C@@](Cn6cncn6)(c6ccc(F)cc6F)C5)cc4)CC3)cc2)c1=O [Posaconazole, posaconazole]
